Biological target: T1, Neutrophil elastase (Homo sapiens) (UniProt P08246)
T1 sequence (whole entry): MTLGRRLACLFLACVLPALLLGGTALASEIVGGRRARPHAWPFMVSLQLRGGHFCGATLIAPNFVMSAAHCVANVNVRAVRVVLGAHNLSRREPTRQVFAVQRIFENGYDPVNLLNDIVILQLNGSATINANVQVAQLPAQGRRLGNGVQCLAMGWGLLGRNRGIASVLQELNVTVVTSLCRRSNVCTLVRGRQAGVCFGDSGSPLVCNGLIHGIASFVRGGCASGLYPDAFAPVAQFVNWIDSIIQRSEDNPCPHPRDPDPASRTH
Assay: Bimolecular rate constant for the inhibition of human leukocyte elastase

| Bimolecular inhibition rate constant (kobs/[I]) [M⁻¹ s⁻¹] | SMILES |
| --- | --- |
| 800 | CS(=O)(=O)ON1C(=O)CC(Cc2ccccc2)NC1=O (centres undefined) |
| 1980 | O=C1CC(Cc2ccccc2)NC(=O)N1OS(=O)(=O)/C=C/c1ccccc1 (centres undefined) |
| 3310 | CS(=O)(=O)ON1C(=O)NCC(Cc2ccccc2)C1=O (centres undefined) |
| 480 | O=C1NCC(Cc2ccccc2)C(=O)N1OS(=O)(=O)/C=C/c1ccccc1 (centres undefined) |

— ChEMBL document CHEMBL1149971, “A general approach toward the design of inhibitors of serine proteinases: inhibition of human leukocyte elastase by substituted dihydrouracils” (Bioorg Med Chem Lett, 1992)
